Results on three molecules are retold here after publication PMC9920298, “Coronavirus Inhibitors Targeting nsp16” (Molecules, 2023).

For one data set, the target named is GST-NSP16 SARS-CoV-2 (Severe acute respiratory syndrome coronavirus 2, UniProt P0DTD1). The experiment in a line: biochemical. The format is binding.
A further data set addresses GST-NSP16 SARS-CoV-1 (Severe acute respiratory syndrome coronavirus, UniProt P0C6X7). The experiment in a line: biochemical. The format is binding.
Another data set has as its target GST-NSP16 MERS-CoV (Middle East respiratory syndrome-related coronavirus, UniProt K9N7C7). The experiment in a line: biochemical. Type of data set: binding.
The nature of data set [1]: Cell viability (resazurin) assay in normal lung fibroblasts. To be noted: human, MRC-5 lung fibroblasts.

A value given as a limit tells only on which side of the number the result lay.

Sequence of GST-NSP16 MERS-CoV (K9N7C7 6776-7078 limits assumed): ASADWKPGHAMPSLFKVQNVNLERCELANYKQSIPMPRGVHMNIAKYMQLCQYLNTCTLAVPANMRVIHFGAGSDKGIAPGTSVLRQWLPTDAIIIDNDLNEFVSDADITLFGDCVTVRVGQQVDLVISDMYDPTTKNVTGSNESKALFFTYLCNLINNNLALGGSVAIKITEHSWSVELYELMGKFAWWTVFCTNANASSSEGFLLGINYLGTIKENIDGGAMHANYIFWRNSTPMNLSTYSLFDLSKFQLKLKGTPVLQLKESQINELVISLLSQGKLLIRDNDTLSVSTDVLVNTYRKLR

As a reminder, the Kd is the constant that tells how readily two partners part at equilibrium. Turning to `Cc1ccc2ccccc2c1COc1ccc2c(-c3cc4ccccc4oc3=O)cc(=O)oc2c1` [ZINC2121012, 7′-[(2-methylnaphthalen-1-yl)methoxy]-2H,2′H-3,4′-bichromene-2,2′-dione], at GST-NSP16 SARS-CoV-2, the “Binding to SARS-CoV-2 nsp16 by MST (in words)” value (from here on “Binding to SARS-CoV-2 nsp16”) was “strong binding” and the dissociation constant (Kd) was determined as 23.1 ± 1.05 µM. Further, the “Binding to SARS-CoV-1 nsp16 by MST (in words)” value on GST-NSP16 SARS-CoV-1 was “bound to neither SARS-CoV-1 nor MERS-CoV”. Also, the “Binding to MERS-CoV nsp16 by MST (in words)” value at GST-NSP16 MERS-CoV was “bound to neither SARS-CoV-1 nor MERS-CoV”.
In general, CC50 refers to the concentration that lowers cell viability or growth by half. A higher CC50 goes with better tolerance by the cells. In the case of `O=c1cc(-c2cc3ccccc3oc2=O)c2ccc(OCc3cccc4ccccc34)cc2o1` [ZINC2129028, 7′-(naphthalen-1-ylmethoxy)-2H,2′H-3,4′-bichromene-2,2′-dione], the “Binding to SARS-CoV-2 nsp16” value at GST-NSP16 SARS-CoV-2 was “strong binding”. Besides, the Kd on GST-NSP16 SARS-CoV-2 was 60 ± 2.53 µM; on GST-NSP16 SARS-CoV-1, 56.4 ± 1.85 µM; at GST-NSP16 MERS-CoV, 48.1 ± 4.12 µM. In data set [1], this molecule came in with a 50% cytotoxic concentration (CC50) at 72 h of 18.5 ± 0.66 µM.
As for `COc1cccc2c(-c3cc4ccc(OCc5ccc6ccccc6c5)cc4oc3=O)cc(=O)oc12` [ZINC12880820, 8′-methoxy-7-[(naphthalen-2-yl)methoxy]-2H,2′H-[3,4′-bichromene]-2,2′-dione], the “Binding to SARS-CoV-2 nsp16” value on GST-NSP16 SARS-CoV-2 is “strong binding”. The results for the Kd on GST-NSP16 SARS-CoV-2, on GST-NSP16 SARS-CoV-1 and on GST-NSP16 MERS-CoV were 29.1 ± 2.86 µM, above 100 µM and 36.4 ± 1.12 µM, respectively.
